Data: patent US20150141342A1, “BLOOD BORNE miRNA SIGNATURE FOR THE ACCURATE DIAGNOSIS OF PANCREATIC DUCTAL ADENOCARCINOMA” (Indiana University Research and Technology Corp., priority 2013, published 2015)

Tests used:
COLO-357 cells = test: Matrigel transwell invasion assay, COLO-357; assay type: cell-based, human; conditions: COLO-357 transfected with miR-10b precursor, erlotinib 2 μM; for miR-10b's effects on combined EGF-TGF-β1 actions on invasion: 1 nM EGF + 0.5 nM TGF-β1, 20 h, SB505124 10 μM
Description: (§1) Invasion and Migration Assays. miR-10b precursor and precursor control transfected cells (5×104) were plated in Matrigel pre-coated transwell chambers (BD Biosciences, San Jose, Calif.) and assays performed as previously reported. UO126 (1 μM) were from Alexis Biochemicals (San Diego, Calif.). Erlotinib (2 μM; Genentech, Inc., South San Francisco, Calif.), and LY294002 (10 μM; Calbiochem, San Diego, Calif.), were added to SF in the lower chamber, in the absence or presence of 1 nM EGF and/or 0.5 nM TGF-β1. Wound healing assays were performed as previously reported. Briefly, 24 hours after cell transfection with pre-miR-10b oligonucleotides, cells were serum starved overnight, and the monolayer was scratched with a 200 μL pipette tip generating two parallel wounds. Cells were then rinsed twice with HBSS and incubated for 24 h in SF media in the absence or presence of 1 nM EGF, 0.5 nM TGF-β1, or their combination, and migration was calculated as the percent change in the wound area.

PANC-1 cells = test: Matrigel transwell invasion assay, PANC-1; assay type: cell-based, human; conditions: PANC-1 transfected with miR-10b precursor, erlotinib 2 μM; for miR-10b's effects on combined EGF-TGF-β1 actions on invasion: 1 nM EGF + 0.5 nM TGF-β1, 20 h, SB505124 10 μM
Description: as §1

[1] = 1 nM EGF, 20 h, LY294002 10 μM, UO126 1 μM

Compound	miR-10b's effects on combined EGF-TGF-β1 actions on invasion (COLO-357 cells)	miR-10b's effects on combined EGF-TGF-β1 actions on invasion (PANC-1 cells)	EGF-induced invasion in the presence of miR-10b (COLO-357 cells; [1])	EGF-induced invasion in the presence of miR-10b (PANC-1 cells; [1])
Cc1cccc(-c2[nH]c(C(C)(C)C)nc2-c2ccc3c(c2)OCO3)n1 [SB505124]	markedly attenuated	markedly attenuated	–	–
C#Cc1cccc(Nc2ncnc3cc(OCCOC)c(OCCOC)cc23)c1 [erlotinib]	markedly attenuated	markedly attenuated	completely blocked	completely blocked
